Earlier results, collected in US20200101019A1, “USE OF LIPOSOMES FOR TREATMENT OF CHRONIC VIRAL HEPATITIS B” (JIANGSU MENDEL GENE TECHNOLOGY CO., LTD, priority 2017, published 2020).

Tested on: Hepatitis B virus (HBV)
Conditions: AASLD Guidelines for Treatment of Chronic Hepatitis B, Hepatology 2016

Structure (SMILES)	HBeAg/anti-HBe seroconversion rate after treatment with other drugs
Nc1ncnc2c1ncn2CCOCP(=O)(O)O [Adefovir]	12%
C=C1[C@H](CO)[C@@H](O)C[C@@H]1n1cnc2c(=O)[nH]c(N)nc21 [Entecavir]	21%
